Laboratory results as given in US20260226006A1, “INDOLE COMPOUND, PREPARATION METHOD THEREFOR AND USE THEREOF” (SUZHOU MERNA THERAPEUTICS CO. LTD, priority 2023, published 2026).

Experiments:
paw plantar skin of rats = experiment: Rat models with hand-foot skin reaction, topical ointment (Example 22); assay type: in vivo, SD rats; conditions: for Incidence rate (successful modeling rate for hand-foot skin reaction): modeling drug alone by gavage once daily, no ointment, SD rats, 30 days
Experimental: After adaptive feeding for one week, SD rats (with a body weight of approximately 200 g) were randomly divided into groups according to the body weight, with 12 rats in each group. Modeling drugs (including sorafenib, erlotinib, afatinib, and osimertinib) were respectively dissolved in a solution containing 5% of DMSO, 45% of PEG400, and 50% of H2O, and the modeling drugs were diluted to required concentrations and then administered once daily by gavage at doses shown in Table 3. After administration by gavage for 1 hour, 0.05 g of ointments containing different mass proportions of test compounds were evenly applied to left paws of the rats, a blank matrix ointment was applied to right paws of the rats to serve as a self-control, and no ointment was applied to the rats in a blank control group. After drug application, four limbs were continuously immobilized for 2 hours, then wiped with clean water to remove the residual drugs, removed from immobilization, and restored to free movement. The modeling drugs, the blank matrix ointment, and the ointments containing the test compounds were all administered once daily. After continuous administration for 30 days, the rats were euthanized, and paw plantar skin tissues were collected, fixed in 10% neutral formalin, […]. The ointments for the test compounds were prepared by mixing the compounds, white beeswax, white petrolatum, and light liquid paraffin in specific ratios (weight ratios of 3 ointments were respectively 1:18:58:23, 3:18:57:22, and 10:20:40:30). The blank matrix ointment was prepared by mixing white beeswax, white petrolatum, and light liquid paraffin in a specific ratio (weight ratio of 18:60:22).
Tissue staining: After dewaxing and rehydration, the paw plantar skin tissue sections of the above rats were stained in a hematoxylin solution for several minutes, cleaned, and placed in 1% acid alcohol for soaking until the sections faded to light blue-red. After cleaning with running water for 5 minutes, the sections were stained with eosin for 2-3 minutes, cleaned to remove excess dyes, dehydrated, then permeabilized by adding xylene for several minutes, and sealed and fixed with a neutral resin. The stratum corneum was observed under an optical microscope, and the thickness of the epidermal stratum corneum was measured using Dmetrix software.
Immunohistochemical staining: After dewaxing and hydration, the paw plantar skin tissue sections of the above rats were incubated with 3% H2O2 at room temperature for 30 minutes and blocked with 10% goat serum for 30 minutes after antigen retrieval. A KRT1 antibody (Abcam, ab93652) and a Loricrin antibody (Abcam, ab183646) were added dropwise, the sections were incubated overnight at 4° C., and an HRP secondary antibody (ZSGB-BIO, PV-6001) and a DAB kit (ZSG-BIO, ZLI9017) were added for color development. The sections were re-stained with hematoxylin, cleaned, and sealed and fixed with a neutral resin, and the expression amounts of KRT1 and Loricrin were observed under an optical microscope.
An incidence rate calculation method involves a proportion of animals in each group meeting the above criteria for determining successful modeling, that is, incidence rate=(number of successfully modeled rats/total number of rats in the group)*100%. […]

HaCat cells = experiment: m6A methylation level of human HaCat keratinocytes, EpiQuik m6A RNA methylation quantification kit (Example 20); assay type: cell-based; conditions: HaCat cells, 24 hours
Experimental: HaCat cells were cultured in a DMEM culture medium containing 10% fetal bovine serum, 100 U/mL penicillin, and 100 μg/mL streptomycin. Culture dishes were placed in an incubator containing 5% CO2 for culture at 37° C. for 24 hours. An equal volume of DMSO was added in control group 1, 50 nM sorafenib, capecitabine, docetaxel, and osimertinib were respectively added in control groups A, B, C, and D, and 400 nM test compounds or nicotinamide were respectively added in sample groups A1-17, B1-17, C1-17, and D1-17 after the addition of 50 nM corresponding compounds. The cells were continuously cultured for 24 hours, washed with PBS, and then collected by high-speed centrifugation. Total RNA was extracted using a Trizol reagent (Sigma Aldrich), and RNA m6A methylation of a sample was quantitatively detected using an EpiQuik m6A RNA methylation quantification kit. The concentrations of positive control samples for a standard curve were 0.01 ng/μl, 0.02 ng/μl, 0.05 ng/μl, 0.1 ng/μl, 0.2 ng/μl, and 0.5 ng/μl. The absorbance at 450 nm was read using a microplate reader (Tecan GENios). A quantitative calculation formula for m6A is as follows:
m6A (ng)=(absorbance of sample well−absorbance of background well)/slope of standard curve m6A (%)=m6A (ng)/RNA amount of sample (ng)*100%.

HaCaT keratinocytes = experiment: Inhibition of HBEGF-induced differentiation of HaCaT keratinocytes, marker mRNA by RT-PCR (Example 21); assay type: cell-based, human; conditions: 2.5 ng/mL human recombinant HBEGF protein + test compound, 24 hours
Experimental: Human HaCaT keratinocytes were cultured in a DMEM culture medium containing 10% fetal bovine serum, 100 U/mL penicillin, and 100 µg/mL streptomycin. The cells were seeded into a 96-well plate at a density of […] and placed in an incubator containing 5% carbon dioxide for culture at 37° C. for 24 hours. An equal volume of DMSO was added into control well 1, a 2.5 ng/mL human recombinant HBEGF protein (Abcam, ab205523) was added into control well 2, and a 2.5 ng/mL human recombinant HBEGF protein and corresponding concentrations of test compounds were added into sample wells. The cells were continuously cultured for 24 hours, washed with PBS, and then collected by high-speed centrifugation. Total RNA was extracted using a Trizol reagent (Sigma Aldrich). 1 μg of RNA was reverse-transcribed into cDNA using a cDNA reverse transcription kit (Transgene Biotech, AT311-03). 1.25 μL of a primer (with a primer sequence shown in Table 2), 10 μL of an iTag Universal SYBR Green supermix (Bio-Rad, 172-S125), and an appropriate amount of DEPC ultrapure water were added to formulate 20 μL of a reaction solution to perform an RT-PCR reaction. Upon completion of the reaction, the reaction solution was subjected to agarose gel electrophoresis to determine the mRNA expression amounts of keratinocyte differentiation markers KRT1, KRT10, Loricrin, and Involucrin.

[1] = successfully modeled rats, modeling drug
[2] = 50 nM capecitabine + 400 nM test compound
[3] = 50 nM docetaxel + 400 nM test compound
[4] = 50 nM osimertinib + 400 nM test compound
[5] = 50 nM sorafenib + 400 nM test compound

With `CN(C)C/C=C/C(=O)Nc1cc2c(Nc3ccc(F)c(Cl)c3)ncnc2cc1O[C@H]1CCOC1` [Afatinib, afatinib, reference compound] the “Incidence rate (successful modeling rate for hand-foot skin reaction)” value (paw plantar skin of rats) was 8/12 (66.7%), the “Incidence rate (successful modeling rate for hand-foot skin reaction)” value (paw plantar skin of rats; listed as afatinib) was 66.7% and the “KRT1 and Loricrin in tissues (immunohistochemical staining)” value (paw plantar skin of rats; [1]) was “significantly increased”. For the same compound, the “stratum corneum thickness of the paw plantar skin” value (paw plantar skin of rats; [1]) was “significantly higher than that of normal rats”.

`NC(=O)C1CCCc2c1[nH]c1ccc(F)cc21` (centres unmarked) [Compound 1, 6-fluoro-2,3,4,9-tetrahydro-1H-carbazole-1-carboxamide] was tested, and the “m6A fold change relative to control group 1” value (HaCat cells; [2]) was 3.0, the “m6A fold change relative to control group 1” value (HaCat cells; [3]) was 3.2 and the “m6A fold change relative to control group 1” value (HaCat cells; [4]) was 3.4. The “m6A fold change relative to control group 1” value (HaCat cells; [5]) was 2.9.

With `NC(=O)[C@@H]1CCCc2c1[nH]c1ccc(Cl)cc21` [Compound 2a, (R)-6-chloro-2,3,4,9-tetrahydro-1H-carbazole-1-carboxamide] the “m6A fold change relative to control group 1” value (HaCat cells; [2]) was 3.5, the “m6A fold change relative to control group 1” value (HaCat cells; [3]) was 5.6 and the “m6A fold change relative to control group 1” value (HaCat cells; [4]) was 3.2. For the same compound, the “m6A fold change relative to control group 1” value (HaCat cells; [5]) was 3.4.

In the case of `NC(=O)C1CCCc2c1[nH]c1ccc(Cl)c(F)c21` (centres unmarked) [Compound 3a, 6-chloro-5-fluoro-2,3,4,9-tetrahydro-1H-carbazole-1-carboxamide], the “m6A fold change relative to control group 1” value (HaCat cells; [2]) is reported as 2.8, the “m6A fold change relative to control group 1” value (HaCat cells; [3]) is reported as 4.2 and the “m6A fold change relative to control group 1” value (HaCat cells; [4]) is reported as 2.9. For the same compound, the “m6A fold change relative to control group 1” value (HaCat cells; [5]) was 3.3 and the “mRNA expression amounts of HaCaT differentiation markers KRT1, KRT10, Loricrin, and Involucrin” value (HaCaT keratinocytes) was “significantly inhibited”.

For `NC(=O)C1CCCc2c1[nH]c1cc(F)c(Cl)cc21` (centres unmarked) [Compound 3b, 6-chloro-7-fluoro-2,3,4,9-tetrahydro-1H-carbazole-1-carboxamide], the “m6A fold change relative to control group 1” value (HaCat cells; [2]) was 2.9, the “m6A fold change relative to control group 1” value (HaCat cells; [3]) was 3.2 and the “m6A fold change relative to control group 1” value (HaCat cells; [4]) was 3.1. The “m6A fold change relative to control group 1” value (HaCat cells; [5]) was 3.3 and the “mRNA expression amounts of HaCaT differentiation markers KRT1, KRT10, Loricrin, and Involucrin” value (HaCaT keratinocytes) was “significantly inhibited”.

For `NC(=O)C1CCCc2c1[nH]c1cc(F)c(Cl)c(F)c21` (centres unmarked) [Compound 4, 6-chloro-5,7-difluoro-2,3,4,9-tetrahydro-1H-carbazole-1-carboxamide], the “m6A fold change relative to control group 1” value (HaCat cells; [2]) was 3.2, the “m6A fold change relative to control group 1” value (HaCat cells; [3]) was 5.1 and the “m6A fold change relative to control group 1” value (HaCat cells; [4]) was 4.2. The “m6A fold change relative to control group 1” value (HaCat cells; [5]) was 3.6.

`NC(=O)C1c2[nH]c3ccc(Cl)cc3c2C2CCC1C2` (centres unmarked) [Compound 5, 2-chloro-5,6,7,8,9,10-hexahydro-7,10-methanocyclohepta[b]indole-6-carboxamide] was tested, and the “m6A fold change relative to control group 1” value (HaCat cells; [2]) was 3.0, the “m6A fold change relative to control group 1” value (HaCat cells; [3]) was 2.9 and the “m6A fold change relative to control group 1” value (HaCat cells; [4]) was 3.1. The “m6A fold change relative to control group 1” value (HaCat cells; [5]) was 2.4.

With `NC(=O)C1c2[nH]c3ccc(Cl)cc3c2C2CCC1C2` [Compound 5b, (R)-2-chloro-5,6,7,8,9,10-hexahydro-7,10-methanocyclohepta[b]indole-6-carboxamide] the “m6A fold change relative to control group 1” value (HaCat cells; [2]) was 4.8, the “m6A fold change relative to control group 1” value (HaCat cells; [3]) was 4.8 and the “m6A fold change relative to control group 1” value (HaCat cells; [4]) was 5.0. The “m6A fold change relative to control group 1” value (HaCat cells; [5]) was 3.8.

`CC1CCC(C(N)=O)c2[nH]c3ccc(Cl)cc3c21` (centres unmarked) [Compound 6, 6-chloro-4-methyl-2,3,4,9-tetrahydro-1H-carbazole-1-carboxamide] was tested, and the “m6A fold change relative to control group 1” value (HaCat cells; [2]) was 3.2, the “m6A fold change relative to control group 1” value (HaCat cells; [3]) was 5.1 and the “m6A fold change relative to control group 1” value (HaCat cells; [4]) was 3.5. For the same compound, the “m6A fold change relative to control group 1” value (HaCat cells; [5]) was 3.4.

`NC(=O)C1CCC(F)c2c1[nH]c1ccc(Cl)cc21` (centres unmarked) [Compound 7, 6-chloro-4-fluoro-2,3,4,9-tetrahydro-1H-carbazole-1-carboxamide] was tested, and the “m6A fold change relative to control group 1” value (HaCat cells; [2]) was 3.9, the “m6A fold change relative to control group 1” value (HaCat cells; [3]) was 3.4 and the “m6A fold change relative to control group 1” value (HaCat cells; [4]) was 2.9. The “m6A fold change relative to control group 1” value (HaCat cells; [5]) was 3.3.

For `CN1CCC(C(N)=O)c2[nH]c3ccc(Cl)cc3c21` (centres unmarked) [Compound 8, 8-chloro-1-methyl-2,3,4,5-tetrahydropyrido[3,2-b]indole-4-carboxamide], the “m6A fold change relative to control group 1” value (HaCat cells; [2]) was 1.7, the “m6A fold change relative to control group 1” value (HaCat cells; [3]) was 3.0 and the “m6A fold change relative to control group 1” value (HaCat cells; [4]) was 2.1. For the same compound, the “m6A fold change relative to control group 1” value (HaCat cells; [5]) was 2.5.

In the case of `CN1CC[C@@H](C(N)=O)c2[nH]c3ccc(Cl)cc3c21` [Compound 8a, (R)-8-chloro-1-methyl-2,3,4,5-tetrahydropyrido[3,2-b]indole-4-carboxamide], the “m6A fold change relative to control group 1” value (HaCat cells; [2]) is reported as 2.4, the “m6A fold change relative to control group 1” value (HaCat cells; [3]) is reported as 4.8 and the “m6A fold change relative to control group 1” value (HaCat cells; [4]) is reported as 3.2. The “m6A fold change relative to control group 1” value (HaCat cells; [5]) was 4.0.

In the case of `NC(=O)C1CCCc2c1[nH]c1cc(Nc3ccccc3)c(Cl)cc21` (centres unmarked) [Compound 9, 6-chloro-7-phenylamino-2,3,4,9-tetrahydro-1H-carbazole-1-carboxamide], the “m6A fold change relative to control group 1” value (HaCat cells; [2]) is reported as 3.9, the “m6A fold change relative to control group 1” value (HaCat cells; [3]) is reported as 3.9 and the “m6A fold change relative to control group 1” value (HaCat cells; [4]) is reported as 4.0. The “m6A fold change relative to control group 1” value (HaCat cells; [5]) was 3.5.

For `C#Cc1cccc(Nc2ncnc3cc(OCCOC)c(OCCOC)cc23)c1` [Erlotinib, erlotinib, reference compound], the “KRT1 and Loricrin in tissues (immunohistochemical staining)” value (paw plantar skin of rats; rat, in vivo) was “significantly increased” and the “stratum corneum thickness of the paw plantar skin” value (paw plantar skin of rats; rat, in vivo) was “significantly higher than that of normal rats”.
